Measured values published in patent US7273878B2, “Difluoroalkene derivative, pest control agent containing the same, and intermediate therefor” (Kumiai Chemical Industry Co., Ltd., priority 2001, dated 2007).

What was measured:
Nilaparvata lugenis = test: Insecticidal test for Nilaparvata lugenis; assay type: in vivo; details: 144 h, 500 ppm active ingredient (wettable powder), 4-instar larvae on germinated rice paddy, 25° C., after 6 days, read-out: mortality rate
Description: The wettable powder prepared according to the above Preparation Example 2 was diluted with water to a concentration of 500 ppm as a concentration of active ingredient. After soaking the germinated rice paddy in the test solution, the paddy was transferred into a 60 ml volume of plastic cup. Ten (10) heads of 4-instar larvae of Nilaparvata lugenis were inoculated on the paddy and capped, then left at the constant temperature of 25° C. After 6 days from the inoculation, the number of surviving insects was counted, and mortality rate of the insect was calculated according to the following formula 1. mortality rate (%)=[(10−number of surviving insect in the test field)/10]×100 (1)

ddy mouse (Slc:ddy) = test: Oral acute toxicity test; assay type: in vivo; parameters: key: 0/3 means none of 3 recipient animals died; 1/3 means one out of 3 recipient animals died; 2/3 means 2 out of 3 recipient animals died; 3/3 means all 3 recipient animals died; details: oral 30 mg/kg, mortality investigated for 7 days; for Test result Female (mortality, animals died out of 3): female ddy mouse; for Test result Male (mortality, animals died out of 3): male ddy mouse
Description: Oral acute toxicity test was conducted according to the method described in the guideline in “Guideline for the Preparation of Test Report on the Toxicity Studies”, published by the Ministry of Agriculture, Forestry and Fisheries of Japan. Experimental animals, 3 each of male and female of 7 weeks aged ddy mouse (Slc:ddy), were obtained from SLC Japan Inc. The compounds of the present invention and the reference substances were suspended in 0.5% sodium carboxymethyl cellulose or corn oil to give a 30 (mg/kg) equivalent amount for a dosage of 10 ml per 1 kg of body weight. The suspensions were inoculated using a sonde directly into the stomach of test animals which were fasted for 3 hours before inoculation. The test animals were fasted for additional 3 hours after inoculation, and the mortality of the inoculated animal was investigated for 7 days. In this table, 0/3 means none of 3 recipient animals died, 1/3 means one out of 3 recipient animals died, 2/3 means 2 out of 3 recipient animals died, 3/3 means all 3 recipient animals died.

Row | SMILES | mortality at 500 ppm (Nilaparvata lugenis) [%] | Test result Female (mortality, animals died out of 3) (ddy mouse (Slc:ddy)) | Test result Male (mortality, animals died out of 3) (ddy mouse (Slc:ddy))
1 | CC(CCCCOC(=O)c1ccc(Cl)nc1)=C(F)F [Compound 1, 6,6-di-fluoro-5-methyl-5-hexenyl 6-chloronicotinate] | ≥ 90 | 0/3 | 0/3
2 | CC(CCCCOC(=O)c1sccc1C)=C(F)F [Compound 2, 6,6-difluoro-5-methyl-5-hexenyl 3-methylthiophene-2-carboxylate] | ≥ 90 |  | 
3 | CC(CCCCOC(=O)c1cc2ccccc2s1)=C(F)F [Compound 3, 6,6-difluoro-5-methyl-5-hexenyl benzo[b]thiophene-2-carboxylate] |  | 0/3 | 0/3
4 | CC(CCCCOC(=O)c1cnc2ccccc2c1)=C(F)F [Compound 8, 6,6-difluoro-5-methyl-5-hexenyl quinoline-3-carboxylate] | ≥ 90 |  | 
5 | CC(CCCCOC(=O)c1ccco1)=C(F)F [Compound 9, 6,6-difluoro-5-methyl-5-hexenyl furan-2-carboxylate] | ≥ 90 |  | 
6 | CC(CCCCCCOC(=O)c1cc2ccccc2s1)=C(F)F [Compound 10, 8,8-difluoro-7-methyl-7-octenyl benzo[b]thiophene-2-carboxylate] | ≥ 90 |  | 
7 | CC(CCCCOC(=O)c1snnc1-c1ccccc1)=C(F)F [Compound 11, 6,6-difluoro-5-methyl-5-hexenyl 4-phenyl[1,2,3]-thiadiazole-5-carboxylate] | ≥ 90 |  | 
8 | CC(CCCCOC(=O)c1ccc2[nH]ccc2c1)=C(F)F [Compound 15, 6,6-difluoro-5-methyl-5-hexenyl 1H-indole-5-carboxylate] | ≥ 90 |  | 
9 | CC(CCOC(=O)c1cc2ccccc2s1)=C(F)F [Compound 18, 4,4-difluoro-3-methyl-3-butenyl benzo[b]thiophene-2-carboxylate] |  | 0/3 | 0/3
10 | CC(CCCCOC(=O)c1nc2ccccc2s1)=C(F)F [Compound 21, 6,6-difluoro-5-methyl-5-hexenyl benzothiazole-2-carboxylate] | ≥ 90 |  | 
11 | CC(CCCCOC(=O)c1cnsn1)=C(F)F [Compound 22, 6,6-difluoro-5-methyl-5-hexenyl [1,2,5]thiadiazole-3-carboxylate] | ≥ 90 |  | 
12 | CCn1c(C(=O)OCCCCC(C)=C(F)F)cc2ccccc21 [Compound 25, 6,6-difluoro-5-methyl-5-hexenyl 1-ethyl-1H-indole-2-carboxylate] | ≥ 90 |  | 
13 | CCc1nn(C)c(C(=O)OCCCCC(C)=C(F)F)c1Cl [Compound 26, 6,6-difluoro-5-methyl-5-hexenyl 4-chloro-5-ethyl-2-methyl-2H-pyrazole-3-carboxylate] | ≥ 90 |  | 
14 | CC(CCCCOC(=O)c1cnccn1)=C(F)F [Compound 28, 6,6-difluoro-5-methyl-5-hexenyl pyrazine-2-carboxylate] | ≥ 90 |  | 
15 | CC(CCCCOC(=O)c1sc(-c2ccccc2)nc1C)=C(F)F [Compound 29, 6,6-difluoro-5-methyl-5-hexenyl 4-methyl-2-phenyl-thiazole-5-carboxylate] |  | 0/3 | 0/3
16 | CC(CCCCOC(=O)c1cccn1C)=C(F)F [Compound 38, 6,6-difluoro-5-methyl-5-hexenyl 1-methyl-1H-pyrrole-2-carboxylate] | ≥ 90 |  | 
17 | CC(CCCCOC(=O)c1cn(C)cn1)=C(F)F [Compound 39, 6,6-difluoro-5-methyl-5-hexenyl 1-methyl-1H-imidazole-4-carboxylate] | ≥ 90 |  | 
18 | CC(=O)N1CCC(C(=O)OCCCCC(C)=C(F)F)CC1 [Compound 40, 6,6-difluoro-5-methyl-5-hexenyl 1-acetylpiperidine-4-carboxylate] | ≥ 90 |  | 
19 | CC(CCCCOC(=O)C1CCOC1)=C(F)F (stereo not shown) [Compound 41, 6,6-difluoro-5-methyl-5-hexenyl tetrahydrofuran-3-carboxylate] | ≥ 90 |  | 
20 | CC(CCCCOC(=O)c1ccc2ocnc2c1)=C(F)F [Compound 43, 6,6-difluoro-5-methyl-5-hexenyl benzoxazole-5-carboxylate] | ≥ 90 |  | 

Row | SMILES | mortality at 500 ppm (Nilaparvata lugenis) [%] | Test result Female (mortality, animals died out of 3) (ddy mouse (Slc:ddy)) | Test result Male (mortality, animals died out of 3) (ddy mouse (Slc:ddy))
21 | CC(CCCCOC(=O)c1noc2ccccc12)=C(F)F [Compound 44, 6,6-difluoro-5-methyl-5-hexenyl benzo[d]isoxazole-3-carboxylate] | ≥ 90 |  | 
22 | CC(CCCCOC(=O)c1nsc2ccccc12)=C(F)F [Compound 45, 6,6-difluoro-5-methyl-5-hexenyl benzo[d]isothiazole-3-carboxylate] | ≥ 90 |  | 
23 | CC(CCCCOC(=O)c1nc(C)n(-c2ccccc2)n1)=C(F)F [Compound 47, 6,6-difluoro-5-methyl-5-hexenyl 5-methyl-1-phenyl-1H-[1,2,4]triazole-3-carboxylate] | ≥ 90 |  | 
24 | CC(CCCCOC(=O)c1cc(Cl)nnc1Cl)=C(F)F [Compound 48, 6,6-difluoro-5-methyl-5-hexenyl 3,6-dichloropyridazine-4-carboxylate] | ≥ 90 |  | 
25 | CC(CCCCOC(=O)c1snc(Cl)c1Cl)=C(F)F [Compound 49, 6,6-difluoro-5-methyl-5-hexenyl 3,4-dichloroisothiazole-5-carboxylate] | ≥ 90 |  | 
26 | CCOc1oc(-c2ccccc2)nc1C(=O)OCCCCC(C)=C(F)F [Compound 50, 6,6-difluoro-5-methyl-5-hexenyl 5-ethoxy-2-phenyl-oxazole-4-carboxylate] | ≥ 90 |  | 
27 | CC(CCOC(=O)c1cnc(N(C)c2ccccc2)nc1C)=C(F)F [Compound 119, 4,4-difluoro-3-methyl-3-butenyl 4-methyl-2-(N-methyl-N-phenylamino)pyrimidine-5-carboxylate] |  | 0/3 | 0/3
28 | CC(CCCCOC(=O)c1csc(-c2ccccc2)n1)=C(F)F [Compound 129, 6,6-difluoro-5-methyl-5-hexenyl 2-phenylthiazole-4-carboxylate] | ≥ 90 |  | 
29 | CC(CCCCOC(=O)c1cnc(-c2ccccc2)s1)=C(F)F [Compound 132, 6,6-difluoro-5-methyl-5-hexenyl 2-phenylthiazole-5-carboxylate] | ≥ 90 |  | 
30 | CC(CCOC(=O)c1ncccc1C(=O)Nc1ccccc1)=C(F)F [Compound 234, 4,4-difluoro-3-methyl-3-butenyl 3-phenylcarbamoyl-pyridine-2-carboxylate] | ≥ 90 |  | 
31 | CC(CCOC(=O)c1c2c(nn1C)CCC2)=C(F)F [Compound 242, 4,4-difluoro-3-methyl-3-butenyl 2-methyl-2,4,5,6-tetrahydrocyclopentapyrazole-3-carboxylate] | ≥ 90 |  | 
32 | CCCCOc1cc(C(=O)OCCC(C)=C(F)F)nc(C)n1 [Compound 276, 4,4-difluoro-3-methyl-3-butenyl 6-butoxy-2-methyl-pyrimidine-4-carboxylate] | ≥ 90 |  | 
33 | CC(CCOC(=O)c1nc(C)cc(-c2ccccc2)n1)=C(F)F [Compound 278, 4,4-difluoro-3-methyl-3-butenyl 4-methyl-6-phenyl-pyrimidine-2-carboxylate] | ≥ 90 |  | 
34 | CC(CCOC(=O)c1cccn1CC1CC1)=C(F)F [Compound 281, 4,4-difluoro-3-methyl-3-butenyl 1-cyclopropylmethyl-1H-pyrrole-2-carboxylate] | ≥ 90 |  | 
35 | CC(CCOC(=O)c1cccn1CC#N)=C(F)F [Compound 282, 4,4-difluoro-3-methyl-3-butenyl 1-cyanomethyl-1H-pyrrole-2-carboxylate] | ≥ 90 |  | 
36 | O=C(OCCCCC=C(F)F)c1ccc(Cl)nc1 [Reference compound A, 6,6-difluoro-5-hexenyl 6-chloronicotinate, reference compound] |  | 3/3 | 3/3
37 | CCCCOc1ncc(C(=O)OCCC=C(F)F)c(C)n1 [Reference compound B, 4,4-difluoro-3-butenyl 2-butoxy-4-methylpyrimidine-5-carboxylate, reference compound] |  | 3/3 | 3/3
38 | Cc1nc(-c2ccccc2)ncc1C(=O)OCCC=C(F)F [Reference compound C, 4,4-difluoro-3-butenyl 4-methyl-2-phenylpyrimidine-5-carboxylate, reference compound] |  | 3/3 | 3/3
39 | O=C(OCCCCC=C(F)F)c1cc2ccccc2s1 [Reference compound D, 6,6-difluoro-5-hexenyl benzo[b]thiophen-2-carboxylate, reference compound] |  | 3/3 | 3/3
